Measurements taken from US9284299B2, “Substituted 1H-indazol-1-ol analogs as inhibitors of beta catenin/Tcf protein-protein interactions” (UNIVERSITY OF UTAH RESEARCH FOUNDATION, priority 2012, dated 2016).
Read-outs that look alike come from different tables or passages of the source.

Tests used:
[1] = system: HCT 116 colon cancer cell line; experiment: MTS-based cell proliferation inhibition assay; conditions: 72 h, dose-dependent (FIG. 2)
Method: The cell proliferation agent, 3-(4,5-dimethylthiazol-2-yl)-5-(3-carboxymethoxyphenyl)-2-(4-sulfophenyl)-2H-tetrazolium (“MTS”), was purchased from Promega (Madison, Wis.) and phenazinemethosulfate from Sigma-Aldrich (St. Louis, Mo.). Cultured cell lines were seeded in 96-well plates at 3×10^3 cells/well, maintained overnight at 37° C., and incubated in the presence of the tested compounds at various concentrations. […] Cells were incubated in 10 μL of this solution at 37° C. for 3 h and the UV absorption at 490 nm was measured. Vehicle-treated cells was used as the negative control. The IC50 values and the Hill slopes were generated using Graphpad Prism 5.0. All data were expressed as mean±SD.

[2] = target: β-catenin/Tcf4 interaction (Homo sapiens (Human), UniProt P35222); experiment: Fluorescence polarization (FP) competitive inhibition assay, β-catenin/Tcf4; assay type: binding
Sequence of β-catenin/Tcf4 interaction (P35222 138-686): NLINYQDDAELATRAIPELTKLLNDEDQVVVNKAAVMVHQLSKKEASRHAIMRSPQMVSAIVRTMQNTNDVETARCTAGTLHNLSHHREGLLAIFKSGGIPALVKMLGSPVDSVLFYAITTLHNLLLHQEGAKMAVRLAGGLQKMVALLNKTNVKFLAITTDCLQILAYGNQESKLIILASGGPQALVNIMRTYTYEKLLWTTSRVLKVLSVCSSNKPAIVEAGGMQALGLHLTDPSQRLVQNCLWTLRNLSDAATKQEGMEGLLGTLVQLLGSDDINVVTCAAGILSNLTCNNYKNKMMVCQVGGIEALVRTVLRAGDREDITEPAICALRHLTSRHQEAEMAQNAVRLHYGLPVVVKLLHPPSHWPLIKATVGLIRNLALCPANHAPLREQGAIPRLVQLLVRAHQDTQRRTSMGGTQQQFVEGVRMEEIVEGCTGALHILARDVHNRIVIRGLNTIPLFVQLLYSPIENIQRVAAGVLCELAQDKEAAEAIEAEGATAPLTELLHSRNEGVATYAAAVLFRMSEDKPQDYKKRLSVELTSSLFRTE
Method: Experiments were performed in 96-well Microfluor 2 black plates (Waltham, Mass.), and the samples were read by a Synergy 2 plate reader (Biotek, Winooski, Vt.). […] The final reaction volume is 100 μL.
In the foregoing equation, mP, is the signal of the positive control; mPbound is the signal of the negative control; and mP is the signal of the tested inhibitor compound.

[3] = Table 2, mean ± standard deviation (n=3), read-out: Ki FP

Molecule	Inhibition of proliferation of colon cancer cell line HCT116 [1]	Ki [2, 3]	Ki ([2]; Table IV, FP assay, read-out: Ki ± SD β-catenin/Tcf4)
5-(2-(2H-TETRAZOL-5-YL)ETHYL)-1H-INDAZOL-1-OL [Compound 12]	inhibit the proliferation		
O=c1[nH]c(Cc2ccc3c(c2)nnn3O)no1 [Compound 2, 3-((1-HYDROXY-1H-BENZO[D][1,2,3]TRIAZOL-5-YL)METHYL)-1,2,4-OXADIAZOL-5(4H)-ONE]		165.4 ± 1.45 µM	
O=c1[nH]c(Cc2ccc3c(cnn3O)c2)no1 [Compound 10, 3-((1-HYDROXY-1H-INDAZOL-5-YL)METHYL)-1,2,4-OXADIAZOL-5(4H)-ONE]		125 ± 1.3 µM	
COc1c(C[C@@H](C)OC(=O)Oc2ccc(O)cc2)c2c3c(C[C@@H](C)OC(=O)c4ccccc4)c(OC)c(=O)c4c(O)cc(OC)c(c5c(OC)cc(O)c(c1=O)c52)c43 [PKF115-584, reference compound]		17.8 ± 2.13 µM	17.8 ± 2.13 µM
